Data: patent US20240402182A1, “PEPTIDE TARGETING FUSOBACTERIA, COMPOSITION FOR DIAGNOSING CANCER COMPRISING SAME, AND DRUG DELIVERY COMPOSITION” (INDUSTRY-ACADEMIC COOPERATION FOUNDATION, YONSEI UNIVERSITY, priority 2021, published 2024)

Tested on: mixture of 9 types of Fusobacteria
Assay: ELISA binding affinity of selected M13 bacteriophage clones to Fusobacteria (FIG. 4D)
Design: species or system Fusobacterium nucleatum
Settings: M13 bacteriophage displaying the peptide, plate coated with Fusobacteria, M13-HRP antibody, TMB, absorbance at OD450
Protocol: A mixture of 9 types of Fusobacteria or each of the 9 types of Fusobacteria was coated on a plate, and a blocking reaction was performed using a 5% BSA solution to prevent non-specific binding. Each selected M13 bacteriophage was reacted on the plate coated with Fusobacteria. The plate was washed three times with phosphate buffer solution containing 0.1% Tween 20, and then reacted with an M13-HRP antibody. The reaction plate was washed three times with phosphate buffer solution containing 0.1% Tween 20 and reacted using a TMB color solution. The reaction was stopped with 1 M sulfuric acid (H2SO4), and the absorbance was measured at OD450 to compare the binding affinity.

PPWLADI [SEQ ID NO: 81]
binding affinity to Fusobacteria (ELISA): highest binding affinity
